# Data published in patent publication US20230365585A1, “BENZODIAZEPINE DERIVATIVES USEFUL IN TREATING A RESPIRATORY SYNCYTIAL VIRUS INFECTION” (priority 2020, published 2023).
# pEC50: −log10 of the molar value.
# Experiments:
# Cell cytotoxicity CC50 = assay type: cell-based; conditions: human; mean of at least two experiments
# Excerpt: (§1) Plates were scanned and analysed using the Immunospot S6 Macro analyser, which is equipped with BioSpot analysis software for counting immunostained plaques (virospots). Plaque counts were used to calculate % infection relative to the mean of the plaque count in the virus control wells for RSV. […] Plaque EC50 and cell toxicity CC50 values are a mean of at least two experiments and figures are rounded to whole units.
# RSV A2 = experiment: RSV plaque reduction assay; assay type: cell-based, RSV (RSV A2 ECACC, 0709161v); conditions: human respiratory syncytial virus, HepG2, 48 h, Hep-G2 cells, RSV A2, 2 days; mean of at least two experiments
# Experimental: Compounds were subjected to RSV plaque reduction assays according to the following protocol.
# Hep-G2 cells (ECACC, 85011430) were passaged in flasks and seeded in 24-well plates in DMEM containing antibiotics and supplemented with 10% FBS. During inoculation and subsequent incubation, cells were cultured in DMEM containing 2% FBS. 100 plaque forming unit/well of RSV (RSV A2 ECACC, 0709161v) was mixed with eight serial dilutions of compound. Subsequently, 100 µL of the virus/compound mixtures was added to confluent Hep-G2 cell monolayers. The cells and virus/compound mixtures were incubated at 37° C. in a humidified 5% CO2 incubator for 2 h prior to removal of the inoculum and addition of 1 mL of overlay (DMEM containing 2% FBS and 0.8% CMC) containing compound dilutions. The cells and were incubated at 37° C. in a humidified 5% CO2 incubator for 2 days.
# Cells were washed with PBS before adding 75%/25% v/v EtOH/MeOH, for 3 min. Fix ative was removed and plates were washed with PBS. A pre-titrated amount of the primary antibody was added in 200 µL PBS/2% milk powder, and plates incubated for 90 min at 37° C. The plates were washed 3 times with PBS/0.05% Tween20 before addition of rabbit anti-goat horse radish peroxidase in 200 µL PBS/2% milk powder, and incubated for 1 h at 37° C. Following three wash steps with PBS/0.05% Tween20, 200 µL ready-to-use TrueBlue was added and plates were incubated at rt for 10-15 min before washing with water. After removal of water, plates were air-dried in the dark.
# as §1
SMILES,CC50 (Cell cytotoxicity CC50) [µM],pEC50 (RSV A2)
"CCNc1ccc(-c2nn3c(c2C(=O)N[C@H]2N=C(c4ccccc4)c4ccccc4NC2=O)OC(C)CCC3)c(F)n1 (single isomer, unassigned) [Example 10-1, (5R*)-2-[6-(ethylamino)-2-fluoropyridin-3-yl]-5-methyl-N-[(3S)-2-oxo-5-phenyl-1,3-dihydro-1,4-benzodiazepin-3-yl]-5,6,7,8-tetrahydropyrazolo[5,1-b][1,3]oxazepine-3-carboxamide]",> 25,7.59
"CCNc1ccc(-c2nn3c(c2C(=O)N[C@H]2N=C(c4ccccc4)c4cccc(F)c4NC2=O)O[C@H](C)CCC3)c(F)n1 (single isomer, unassigned) [Example 11-1]",> 25,7.66
"CCNc1ccc(-c2nn3c(c2C(=O)N[C@H]2N=C(c4ccccc4)c4cccc(F)c4NC2=O)OC(C)CCC3)c(F)n1 (single isomer, unassigned) [Example 11-2, (5S*)-2-[6-(ethylamino)-2-fluoropyridin-3-yl]-N-[(3S)-9-fluoro-2-oxo-5-phenyl-1,3-dihydro-1,4-benzodiazepin-3-yl]-5-methyl-5,6,7,8-tetrahydropyrazolo[5,1-b][1,3]oxazepine-3-carboxamide]",> 25,8.05
"CC(C)Nc1ccc(-c2nn3c(c2C(=O)N[C@H]2N=C(c4ccccc4)c4ccccc4NC2=O)OC(C)CCC3)c(F)n1 (single isomer, unassigned) [Example 12-1, (5R*)-2-[2-fluoro-6-(propan-2-ylamino)pyridin-3-yl]-5-methyl-N-[(3S)-2-oxo-5-phenyl-1,3-dihydro-1,4-benzodiazepin-3-yl]-5,6,7,8-tetrahydropyrazolo[5,1-b][1,3]oxazepine-3-carboxamide]",> 25,7.46
"CC(C)Nc1ccc(-c2nn3c(c2C(=O)N[C@H]2N=C(c4ccccc4)c4cccc(F)c4NC2=O)OC(C)CCC3)c(F)n1 (single isomer, unassigned) [Example 13-1, (5R*)-N-[(3S)-9-fluoro-2-oxo-5-phenyl-1,3-dihydro-1,4-benzodiazepin-3-yl]-2-[2-fluoro-6-(propan-2-ylamino)pyridin-3-yl]-5-methyl-5,6,7,8-tetrahydropyrazolo[5,1-b][1,3]oxazepine-3-carboxamide]",> 25,7.59
"CC1CCCOc2c(C(=O)NC3N=C(c4ccccc4)c4ccccc4NC3=O)c(-c3ccccc3F)nn21 (single isomer, unassigned) [Example 14-1, (8R*)-2-(2-Fluorophenyl)-8-methyl-N-(2-oxo-5-phenyl-1,3-dihydro-1,4-benzodiazepin-3-yl)-5,6,7,8-tetrahydropyrazolo[5,1-b][1,3]oxazepine-3-carboxamide]",> 25,7.21
"CC1CCCOc2c(C(=O)NC3N=C(c4ccccc4)c4cccc(F)c4NC3=O)c(-c3ccccc3F)nn21 (single isomer, unassigned) [Example 15-1, (8R*)-N-(9-fluoro-2-oxo-5-phenyl-1,3-dihydro-1,4-benzodiazepin-3-yl)-2-(2-fluorophenyl)-8-methyl-5,6,7,8-tetrahydropyrazolo[5,1-b][1,3]oxazepine-3-carboxamide]",> 25,7.33
"CC1CCCn2nc(-c3ccc(F)cc3F)c(C(=O)N[C@H]3N=C(c4ccccc4)c4ccccc4NC3=O)c2O1 (single isomer, unassigned) [Example 16-1, (5R*)-2-(2,4-difluorophenyl)-5-methyl-N-[(3S)-2-oxo-5-phenyl-1,3-dihydro-1,4-benzodiazepin-3-yl]-5,6,7,8-tetrahydropyrazolo[5,1-b][1,3]oxazepine-3-carboxamide]",> 25,7.55
"CC1CCCn2nc(-c3ccc(F)cc3F)c(C(=O)N[C@H]3N=C(c4ccccc4)c4cccc(F)c4NC3=O)c2O1 (single isomer, unassigned) [Example 17-1, (5R*)-2-(2,4-difluorophenyl)-N-[(3 S)-9-fluoro-2-oxo-5-phenyl-1,3-dihydro-1,4-benzodiazepin-3-yl]-5-methyl-5,6,7,8-tetrahydropyrazolo[5,1-b][1,3]oxazepine-3-carboxamide]",> 25,7.72
"O=C(N[C@H]1N=C(c2ccccc2)c2cccc(F)c2NC1=O)c1c(-c2ccccc2F)nn2c1O[C@@H]1CC[C@H]2C1 (single isomer, unassigned) [Example 19-1, (1S*,8R*)-N-[(3 S)-9-fluoro-2-oxo-5-phenyl-2,3-dihydro-1H-1,4-benzodiazepin-3-yl]-4-(2-fluorophenyl)-7-oxa-2,3-diazatricyclo[6.2.1.0^2,6]undeca-3,5-diene-5-carboxamide]",> 25,7.31
"O=C(N[C@H]1N=C(c2ccccc2)c2cccc(F)c2NC1=O)c1c(-c2ccccc2F)nn2c1O[C@H]1CC[C@@H]2C1 (single isomer, unassigned) [Example 19-2, (1R*,8S*)-N-[(3 S)-9-fluoro-2-oxo-5-phenyl-2,3-dihydro-1H-1,4-benzodiazepin-3-yl]-4-(2-fluorophenyl)-7-oxa-2,3-diazatricyclo[6.2.1.0^2,6]undeca-3,5-diene-5-carboxamide]",> 25,7.28
"CCC1CCCn2nc(-c3ccccc3F)c(C(=O)N[C@H]3N=C(c4ccccc4)c4ccccc4NC3=O)c2O1 (single isomer, unassigned) [Example 24-1, (5R*)-5-ethyl-2-(2-fluorophenyl)-N-[(3S)-2-oxo-5-phenyl-2,3-dihydro-1H-1,4-benzodiazepin-3-yl]-5H,6H,7H,8H-pyrazolo[3,2-b][1,3]oxazepine-3-carboxamide]",> 25,6.95
"CCC1CCCn2nc(-c3ccccc3F)c(C(=O)N[C@H]3N=C(c4ccccc4)c4cccc(F)c4NC3=O)c2O1 (single isomer, unassigned) [Example 25-1, (5R*)-5-ethyl-2-(2-fluorophenyl)-N-[(3S)-9-fluoro-2-oxo-5-phenyl-1,3-dihydro-1,4-benzodiazepin-3-yl]-5,6,7,8-tetrahydropyrazolo[5,1-b][1,3]oxazepine-3-carboxamide]",> 25,7.03
"CCC1CCCn2nc(-c3ccc(C)nc3)c(C(=O)N[C@H]3N=C(c4ccccc4)c4ccccc4NC3=O)c2O1 (single isomer, unassigned) [Example 26-1, (5R*)-5-ethyl-2-(6-methylpyridin-3-yl)-N-[(3 S)-2-oxo-5-phenyl-2,3-dihydro-1H-1,4-benzodiazepin-3-yl]-5H,6H,7H,8H-pyrazolo[3,2-b][1,3]oxazepine-3-carboxamide]",> 25,6.50
"CCC1CCCn2nc(-c3ccc(C)nc3)c(C(=O)N[C@H]3N=C(c4ccccc4)c4cccc(F)c4NC3=O)c2O1 (single isomer, unassigned) [Example 27-1, (5R*)-5-ethyl-N-[(3S)-9-fluoro-2-oxo-5-phenyl-2,3-dihydro-1H-1,4-benzodiazepin-3-yl]-2-(6-methylpyridin-3-yl)-5H,6H,7H,8H-pyrazolo[3,2-b][1,3]oxazepine-3-carboxamide]",> 25,6.53
"CCc1ccc(-c2nn3c(c2C(=O)N[C@H]2N=C(c4ccccc4)c4cccc(F)c4NC2=O)O[C@@H]2CC[C@H]3C2)cn1 (single isomer, unassigned) [Example 30-1, (1S*,8R*)-4-(6-ethylpyridin-3-yl)-N-[(3S)-9-fluoro-2-oxo-5-phenyl-2,3-dihydro-1H-1,4-benzodiazepin-3-yl]-7-oxa-2,3-diazatricyclo[6.2.1.02,6]undeca-3,5-diene-5-carboxamide]",> 25,7.21
